Strand notation (5' to 3'): a small letter for the sugar, then the base; units joined by * are phosphorothioate-linked, units joined directly phosphodiester-linked; [ ] holds rarer units or linkages, { } end groups; capitals alone tell only the bases. k = constrained ethyl (cEt); [5mC] = 5-methylcytosine; d = 2'-deoxy (DNA)

One data set deals with Yap1 mRNA. Kind of data set: Antisense inhibition of human Yap1 in A-431 cells by cEt gapmers, single dose (Example 3, RTS36584). The class given is cell-based. Conditions: Table 26; Yap1 mRNA by 3-10-3 cEt gapmers targeting SEQ ID NO.: 1, and 2; percent of untreated control. A digest of the protocol: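 Human epidermoid A-431 cells take up gapmer (2,000 nM, free uptake, ~48 h); Yap1 transcript is then assayed by qRT-PCR with RiboGreen normalization and reported relative to untreated cells. Gapmers carry cEt-modified wings, phosphorothioate linkages and 5-methylcytosine throughout.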
As for “1074156 (kA*kG*kG*dG*d[5mC]*dT*dA*d[5mC]*dG*d[5mC]*d[5mC]*d[5mC]*dG*kG*kA*k[5mC]; antisense) [compound 1074156]”, the “YAP1 (% UTC)” value was determined as 96 % UTC.

Take “1074188 (antisense kG*k[5mC]*kT*dG*d[5mC]*dG*dA*dA*dG*dG*d[5mC]*dG*dG*k[5mC]*kT*kG) [compound 1074188]”: the “YAP1 (% UTC)” value amounted to 113 % UTC.

For the substance “1074220 (antisense kA*kA*kT*dG*dA*dG*d[5mC]*dT*d[5mC]*dG*dA*dA*d[5mC]*kA*kT*kG) [compound 1074220]”, the “YAP1 (% UTC)” value worked out at 22 % UTC. For the substance “1074252 (antisense kG*kG*kA*d[5mC]*dA*dG*d[5mC]*dA*dT*dG*dG*d[5mC]*d[5mC]*kT*kT*k[5mC]) [compound 1074252]”, the “YAP1 (% UTC)” value stood at 50 % UTC. Consider “1074284 (antisense k[5mC]*kA*kA*dA*dA*d[5mC]*dG*dA*dG*dG*dG*dT*d[5mC]*kA*kA*kG) [compound 1074284]”, for which the “YAP1 (% UTC)” value was determined as 21 % UTC.

For “1074316 (antisense kG*kG*kA*dT*dT*dG*dA*dT*dA*dT*dT*d[5mC]*d[5mC]*kG*k[5mC]*kA) [compound 1074316]”, the “YAP1 (% UTC)” value was 33 % UTC. Consider “1074348 (antisense kG*kT*kA*d[5mC]*dT*d[5mC]*dT*d[5mC]*dA*dT*d[5mC]*dT*d[5mC]*kG*kA*kG) [compound 1074348]”, for which the “YAP1 (% UTC)” value is reported as 100 % UTC. With “1074380 (kG*kT*k[5mC]*dT*dG*dG*dG*dA*dA*dA*d[5mC]*dG*dG*kT*kT*k[5mC]; antisense) [compound 1074380]”, the “YAP1 (% UTC)” value amounted to 11 % UTC.

The same data set, now with this note: Table 27; Yap1 mRNA by 3-10-3 cEt gapmers targeting SEQ ID NO.: 1, and 2; percent of untreated control.
On to “1074157 (kA*kG*k[5mC]*dG*dA*dG*dG*dG*d[5mC]*dT*dA*d[5mC]*dG*k[5mC]*k[5mC]*k[5mC]; antisense) [compound 1074157]”, for which the “YAP1 (% UTC)” value is listed as 103 % UTC. For “1074189 (antisense kG*kG*k[5mC]*dT*dG*d[5mC]*dG*dA*dA*dG*dG*d[5mC]*dG*kG*k[5mC]*kT) [compound 1074189]”, the “YAP1 (% UTC)” value was 96 % UTC. As to “1074253 (antisense kT*k[5mC]*kT*dG*dG*dG*dA*d[5mC]*dA*dG*d[5mC]*dA*dT*kG*kG*k[5mC]) [compound 1074253]”, the “YAP1 (% UTC)” value was determined as 11 % UTC. As for “1074285 (antisense kG*k[5mC]*kA*dA*dA*dA*d[5mC]*dG*dA*dG*dG*dG*dT*k[5mC]*kA*kA) [compound 1074285]”, the “YAP1 (% UTC)” value was 17 % UTC. The same measure, in the same setting: under “1074317 (antisense kG*kA*kG*dA*dA*dT*dT*dT*dG*d[5mC]*dT*dG*dT*kG*k[5mC]*kT) [compound 1074317]” stands 12 % UTC. Turning to “1074349 (antisense k[5mC]*kT*kG*dT*dA*d[5mC]*dT*d[5mC]*dT*d[5mC]*dA*dT*d[5mC]*kT*k[5mC]*kG) [compound 1074349]”, the “YAP1 (% UTC)” value is listed as 30 % UTC. With “1074381 (kA*kG*kT*d[5mC]*dT*dG*dG*dG*dA*dA*dA*d[5mC]*dG*kG*kT*kT; antisense) [compound 1074381]”, the “YAP1 (% UTC)” value was 16 % UTC.

Still in this data set, the particulars now being: Table 28; Yap1 mRNA as percent of untreated control; 3-10-3 cEt gapmers targeting SEQ ID NO.: 1, and 2.
Take “1074126 (k[5mC]*kT*kG*dG*d[5mC]*dG*dG*d[5mC]*dT*dG*d[5mC]*dG*d[5mC]*k[5mC]*kT*k[5mC]; antisense) [compound 1074126]”: the “YAP1 (% UTC)” value is 111 % UTC. On to “1074158 (kG*kA*kG*d[5mC]*dG*dA*dG*dG*dG*d[5mC]*dT*dA*d[5mC]*kG*k[5mC]*k[5mC]; antisense) [compound 1074158]”, for which the “YAP1 (% UTC)” value is 72 % UTC. With “1074190 (antisense k[5mC]*kG*kG*d[5mC]*dG*dG*dG*d[5mC]*d[5mC]*d[5mC]*dT*dG*d[5mC]*k[5mC]*k[5mC]*k[5mC]) [compound 1074190]”, the “YAP1 (% UTC)” value is on record as 114 % UTC. In the case of “1074254 (antisense kA*kT*k[5mC]*dT*dG*dG*dG*dA*d[5mC]*dA*dG*d[5mC]*dA*kT*kG*kG) [compound 1074254]”, the “YAP1 (% UTC)” value is on record as 13 % UTC. On to “1074286 (antisense kT*kG*kA*dT*dT*d[5mC]*dT*d[5mC]*dT*dG*dG*dT*dT*k[5mC]*kA*kT) [compound 1074286]”, for which the “YAP1 (% UTC)” value is 32 % UTC.

On to “1074350 (antisense kT*kA*kG*dT*d[5mC]*d[5mC]*dA*d[5mC]*dT*dG*dT*d[5mC]*dT*kG*kT*kA) [compound 1074350]”, for which the “YAP1 (% UTC)” value came out at 14 % UTC. Consider “1074382 (kA*kG*kG*dT*dA*dG*dT*d[5mC]*dT*dG*dG*dG*dA*kA*kA*k[5mC]; antisense) [compound 1074382]”, for which the “YAP1 (% UTC)” value came to 8 % UTC.

The same data set, now with this note: Table 29; Yap1 mRNA as percent of untreated control; 3-10-3 cEt gapmers targeting SEQ ID NO.: 1, and 2.
In the case of “1074127 (k[5mC]*k[5mC]*kA*d[5mC]*dT*dG*dG*dT*d[5mC]*dT*dG*dG*d[5mC]*kG*kG*k[5mC]; antisense) [compound 1074127]”, the “YAP1 (% UTC)” value came out at 57 % UTC. On to “1074159 (k[5mC]*kG*kA*dG*d[5mC]*dG*dA*dG*dG*dG*d[5mC]*dT*dA*k[5mC]*kG*k[5mC]; antisense) [compound 1074159]”, for which the “YAP1 (% UTC)” value amounted to 77 % UTC. As for “1074191 (antisense kA*k[5mC]*kG*dG*d[5mC]*dG*dG*dG*d[5mC]*d[5mC]*d[5mC]*dT*dG*k[5mC]*k[5mC]*k[5mC]) [compound 1074191]”, the “YAP1 (% UTC)” value came out at 80 % UTC. As for “1074223 (antisense kG*kA*kA*dA*d[5mC]*dA*dG*d[5mC]*dT*d[5mC]*d[5mC]*d[5mC]*dA*kA*k[5mC]*kT) [compound 1074223]”, the “YAP1 (% UTC)” value is given as 48 % UTC. On the same count and under the same terms, in the case of “1074255 (antisense kT*k[5mC]*kA*dT*d[5mC]*dT*dG*dG*dG*dA*d[5mC]*dA*dG*k[5mC]*kA*kT) [compound 1074255]” it was 16 % UTC; in that of “1074287 (antisense kA*k[5mC]*kT*dG*dA*dT*dT*d[5mC]*dT*d[5mC]*dT*dG*dG*kT*kT*k[5mC]) [compound 1074287]”, 11 % UTC. Take “1074319 (antisense kG*k[5mC]*kT*dA*dA*d[5mC]*dT*d[5mC]*d[5mC]*dT*dG*dA*d[5mC]*kA*kT*kT) [compound 1074319]”: the “YAP1 (% UTC)” value came out at 47 % UTC. With “1074383 (kT*k[5mC]*kA*dA*dG*dG*dT*dA*dG*dT*d[5mC]*dT*dG*kG*kG*kA; antisense) [compound 1074383]”, the “YAP1 (% UTC)” value was 40 % UTC.

The data set is the same for the next values; noted with them: Table 34; Yap1 mRNA as percent of untreated control; 3-10-3 cEt gapmers targeting SEQ ID NO: 1 and 2; single dose.
On to “1074132 (k[5mC]*kG*kG*d[5mC]*d[5mC]*d[5mC]*d[5mC]*dG*d[5mC]*dA*dT*d[5mC]*d[5mC]*k[5mC]*k[5mC]*k[5mC]; antisense) [compound 1074132]”, for which the “YAP1 (% UTC)” value was determined as 96 % UTC.

As to “1074164 (k[5mC]*k[5mC]*kA*dG*dG*d[5mC]*dG*dA*dG*d[5mC]*dG*dA*dG*kG*kG*k[5mC]; antisense) [compound 1074164]”, the “YAP1 (% UTC)” value was found to be 135 % UTC. On the same count and under the same terms, under “1074196 (antisense kG*k[5mC]*k[5mC]*d[5mC]*dG*dG*dG*dT*d[5mC]*d[5mC]*dG*dG*dA*k[5mC]*kG*kG) [compound 1074196]” stands 99 % UTC; under “1074228 (antisense kG*kA*k[5mC]*dT*dG*dT*d[5mC]*dG*dA*dA*dG*dA*dT*kG*k[5mC]*kT) [compound 1074228]”, 17 % UTC; under “1074260 (antisense kG*kT*kT*d[5mC]*dA*dT*d[5mC]*dA*dT*dA*dT*dT*d[5mC]*kT*kG*k[5mC]) [compound 1074260]”, 48 % UTC. With “1074292 (antisense k[5mC]*kT*kG*dT*dT*dT*d[5mC]*dA*d[5mC]*dT*dG*dG*dA*kG*k[5mC]*kA) [compound 1074292]”, the “YAP1 (% UTC)” value was 10 % UTC. Turning to “1074324 (antisense kG*k[5mC]*kA*dG*dG*dG*d[5mC]*dT*dA*dA*d[5mC]*dT*d[5mC]*k[5mC]*kT*kG) [compound 1074324]”, the “YAP1 (% UTC)” value turned out to be 116 % UTC.

Consider “1074356 (antisense kG*kA*kG*dG*dG*dA*d[5mC]*dA*d[5mC]*dT*dG*dT*dA*kG*k[5mC]*kT) [compound 1074356]”, for which the “YAP1 (% UTC)” value amounted to 43 % UTC. In the case of “1074388 (kG*kA*k[5mC]*dT*dT*dG*dG*d[5mC]*dA*dT*d[5mC]*dA*dG*k[5mC]*kT*k[5mC]; antisense) [compound 1074388]”, the “YAP1 (% UTC)” value came out at 16 % UTC.

The same data set, now with this note: Table 35; Yap1 mRNA as percent of untreated control; 3-10-3 cEt gapmers targeting SEQ ID NO: 1 and 2; single dose.
Consider “1074133 (kG*k[5mC]*kG*dG*d[5mC]*d[5mC]*d[5mC]*d[5mC]*dG*d[5mC]*dA*dT*d[5mC]*k[5mC]*k[5mC]*k[5mC]; antisense) [compound 1074133]”, for which the “YAP1 (% UTC)” value was determined as 101 % UTC.

In the case of “1074165 (k[5mC]*k[5mC]*k[5mC]*dA*dG*dG*d[5mC]*dG*dA*dG*d[5mC]*dG*dA*kG*kG*kG; antisense) [compound 1074165]”, the “YAP1 (% UTC)” value is listed as 90 % UTC. Take “1074197 (antisense kT*kG*k[5mC]*d[5mC]*d[5mC]*dG*dG*dG*dT*d[5mC]*d[5mC]*dG*dG*kA*k[5mC]*kG) [compound 1074197]”: the “YAP1 (% UTC)” value was found to be 91 % UTC. For “1074261 (antisense k[5mC]*k[5mC]*kG*dA*dG*dT*dT*d[5mC]*dA*dT*d[5mC]*dA*dT*kA*kT*kT) [compound 1074261]”, the “YAP1 (% UTC)” value was 19 % UTC. Still for that read-out and setting: in the case of “1074293 (antisense kG*k[5mC]*kT*dG*dT*dT*dT*d[5mC]*dA*d[5mC]*dT*dG*dG*kA*kG*k[5mC]) [compound 1074293]” it was 54 % UTC; in that of “1074325 (antisense k[5mC]*kG*k[5mC]*dA*dG*dG*dG*d[5mC]*dT*dA*dA*d[5mC]*dT*k[5mC]*k[5mC]*kT) [compound 1074325]”, 42 % UTC. Consider “1074357 (antisense k[5mC]*kG*kA*dG*dG*dG*dA*d[5mC]*dA*d[5mC]*dT*dG*dT*kA*kG*k[5mC]) [compound 1074357]”, for which the “YAP1 (% UTC)” value is 12 % UTC.
